US12195482B1 (Arcus Biosciences, Inc., priority 2022, dated 2025)

Columns and labels:
p-AXL = molecular target: T1, p-AXL (Homo sapiens, UniProt P30530); test: Axl phosphorylation inhibition ELISA in HEK293T cells transfected with NanoLuc-tagged AXL; assay type: cell-based; settings: 1 h compound incubation, media (OptiMEM)
T1 construct: expressed in transfected cells; host or cells: HEK293T
T1 sequence (P30530 26-894): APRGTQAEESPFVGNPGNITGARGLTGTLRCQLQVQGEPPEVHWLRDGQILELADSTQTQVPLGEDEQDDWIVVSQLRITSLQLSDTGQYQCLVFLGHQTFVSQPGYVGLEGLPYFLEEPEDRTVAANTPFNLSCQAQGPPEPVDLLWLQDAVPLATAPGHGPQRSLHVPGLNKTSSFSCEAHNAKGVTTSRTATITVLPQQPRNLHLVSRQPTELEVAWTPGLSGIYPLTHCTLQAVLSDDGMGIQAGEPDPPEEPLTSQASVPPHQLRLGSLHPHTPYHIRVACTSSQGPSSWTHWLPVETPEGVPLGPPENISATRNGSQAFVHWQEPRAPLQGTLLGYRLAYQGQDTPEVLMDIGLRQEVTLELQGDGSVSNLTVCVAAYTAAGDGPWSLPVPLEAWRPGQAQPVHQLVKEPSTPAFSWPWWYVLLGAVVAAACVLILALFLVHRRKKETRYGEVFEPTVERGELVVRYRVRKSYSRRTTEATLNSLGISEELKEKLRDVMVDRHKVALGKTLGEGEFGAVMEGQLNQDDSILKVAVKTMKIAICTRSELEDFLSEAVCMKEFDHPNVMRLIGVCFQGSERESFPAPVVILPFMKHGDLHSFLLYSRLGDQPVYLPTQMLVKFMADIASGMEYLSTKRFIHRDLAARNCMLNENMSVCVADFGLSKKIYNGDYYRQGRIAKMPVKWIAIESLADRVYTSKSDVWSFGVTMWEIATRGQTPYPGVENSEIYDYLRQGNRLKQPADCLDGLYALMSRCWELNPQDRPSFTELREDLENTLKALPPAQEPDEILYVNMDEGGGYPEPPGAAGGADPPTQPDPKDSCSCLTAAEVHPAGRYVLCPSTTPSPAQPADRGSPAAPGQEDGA
Procedure, shortened: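 HEK293T cells transiently transfected one day earlier with NanoLuc-tagged AXL were exposed to 22-point 2-fold compound dilutions for 1 h at 37° C (70,000 cells/well), then lysed. Lysates captured on anti-phospho-tyrosine coated plates for 2 h; bound p-AXL read by NanoLuc luminescence; IC50 from 4-parameter logistic fit.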

Axl = molecular target: T2, Axl (Homo sapiens, UniProt P30530); test: Biochemical potency, HTRF KinEASE-TK kinase assay; parameters: purchased Invitrogen; settings: 5 nM AXL, 700 μM ATP
T2 sequence (P30530 26-894): T1 sequence (P30530 26-894)
Procedure, shortened: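 Phosphorylation of a biotinylated tyrosine-kinase peptide (800 nM) by AXL (5 nM) or TYRO3/MER (1 nM) is measured at 700 µM ATP after 2 h at room temperature, following 1 h enzyme–compound preincubation. Signal is the time-resolved FRET ratio, converted to percent activity.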

IC50 (p-AXL) [nM] | IC50 (Axl) [nM] | Compound
100 to 1000 | < 100 | Cc1cccnc1-c1ccc(-c2n[nH]c3ncc(-c4ccc5c(c4)CCN(C4CCCC4)CC5)cc23)cc1 [Example 24, 3-Cyclopentyl-7-{3-[4-(3-methylpyridin-2-yl)phenyl]-1H-pyrazolo[3,4-b]pyridin-5-yl}-2,3,4,5-tetrahydro-1H-3-benzazepine]
< 100 | < 100 | Cc1cc(F)cnc1-c1ccc(-c2c[nH]c3ncc(-c4ccc5c(c4)CC[C@@](C)(N4CCC[C@H]4C)CC5)cc23)cc1 [Example 34, 3-[4-(5-Fluoro-3-methylpyridin-2-yl)phenyl]-5-[(7S)-7-methyl-7-[(2R)-2-methylpyrrolidin-1-yl]-5,6,8,9-tetrahydrobenzo[7]annulen-3-yl]-1H-pyrrolo[2,3-b]pyridine]
< 100 | < 100 | Cc1ccc(C(N)=O)nc1-c1ccc(-c2c[nH]c3ncc(-c4ccc5c(c4)CC[C@@H](N4C6COCC4C6)CC5)cc23)cc1 [Example 76, 5-Methyl-6-(4-{5-[(7S)-7-{3-oxa-6-azabicyclo[3.1.1]heptan-6-yl}-6,7,8,9-tetrahydro-5H-benzo[7]annulen-2-yl]-1H-pyrrolo[2,3-b]pyridin-3-yl}phenyl)pyridine-2-carboxamide]
< 100 | < 100 | Cc1cccnc1-c1nnc(-c2n[nH]c3ncc(-c4ccc5c(c4)CC[C@@H](N4C6COCC4C6)CC5)cc23)o1 [Example 25, 6-[(7S)-2-{3-[5-(3-Methylpyridin-2-yl)-1,3,4-oxadiazol-2-yl]-1H-pyrazolo[3,4-b]pyridin-5-yl}-6,7,8,9-tetrahydro-5H-benzo[7]annulen-7-yl]-3-oxa-6-azabicyclo[3.1.1]heptane]
< 100 | < 100 | Cc1ccc(C)c(-c2ccc(-c3c[nH]c4ncc(-c5ccc6c(c5)CC[C@@H](N5C7COC[C@H]5C7)CC6)cc34)nc2)n1 [Example 142, 3,6-Dimethyl-6′-{5-[(7S)-7-[(1R)-3-oxa-6-azabicyclo[3.1.1]heptan-6-yl]-6,7,8,9-tetrahydro-5H-benzo[7]annulen-2-yl]-1H-pyrrolo[2,3-b]pyridin-3-yl}-2,3′-bipyridine]
< 100 | < 100 | CCn1ncnc1-c1ccc(-c2n[nH]c3ncc(-c4ccc5c(c4)CC[C@@H](N4C6COCC4C6)CC5)cc23)cc1 [Example 138, 6-[(7S)-2-{3-[4-(1-Ethyl-1H-1,2,4-triazol-5-yl)phenyl]-1H-pyrazolo[3,4-b]pyridin-5-yl}-6,7,8,9-tetrahydro-5H-benzo[7]annulen-7-yl]-3-oxa-6-azabicyclo[3.1.1]heptane]
< 100 | < 100 | Cc1ccc(C)c(-c2ccc(-c3n[nH]c4ncc(-c5ccc6c(c5)CC[C@@H](N5C[C@@H]7C[C@H]5CO7)CC6)cc34)cc2)n1 [Example 141, (1S,4S)-5-[(7S)-2-{3-[4-(3,6-Dimethylpyridin-2-yl)phenyl]-1H-pyrazolo[3,4-b]pyridin-5-yl}-6,7,8,9-tetrahydro-5H-benzo[7]annulen-7-yl]-2-oxa-5-azabicyclo[2.2.1]heptane]
< 100 | < 100 | c1cc2c(c(-c3ccc(-c4c[nH]c5ncc(-c6ccc7c(c6)CC[C@@H](N6C8COCC6C8)CC7)cc45)cc3)n1)OCCO2 [Example 194, 6-[(7S)-2-[3-(4-{2H,3H-[1,4]Dioxino[2,3-c]pyridin-5-yl}phenyl)-1H-pyrrolo[2,3-b]pyridin-5-yl]-6,7,8,9-tetrahydro-5H-benzo[7]annulen-7-yl]-3-oxa-6-azabicyclo[3.1.1]heptane]
100 to 1000 | < 100 | Cc1cc(C)c(-c2ccc(-c3c[nH]c4ncc(-c5ccc6c(c5)CC[C@@H](N5C7COCC5C7)CC6)cc34)cc2)cn1 [Example 196, 6-[(7S)-2-{3-[4-(4,6-Dimethylpyridin-3-yl)phenyl]-1H-pyrrolo[2,3-b]pyridin-5-yl}-6,7,8,9-tetrahydro-5H-benzo[7]annulen-7-yl]-3-oxa-6-azabicyclo[3.1.1]heptane]
100 to 1000 | < 100 | Cc1cccnc1-c1ccc(-c2n[nH]c3ncc(-c4ccc5c(c4)CC(N4CCCC4)CC5)cc23)cc1 (stereo not shown) [Example 67, 3-Methyl-2-(4-{5-[7-(pyrrolidin-1-yl)-5,6,7,8-tetrahydronaphthalen-2-yl]-1H-pyrazolo[3,4-b]pyridin-3-yl}phenyl)pyridine]
< 100 | < 100 | Cc1ccc(C)c(-c2ccc(-c3n[nH]c4ncc(-c5ccc6c(c5)CC[C@@](C)(N5CCC[C@H]5C)CC6)cc34)cc2)n1 [Example 136, 3,6-Dimethyl-2-(4-{5-[(7S)-7-methyl-7-[(2R)-2-methylpyrrolidin-1-yl]-6,7,8,9-tetrahydro-5H-benzo[7]annulen-2-yl]-1H-pyrazolo[3,4-b]pyridin-3-yl}phenyl)pyridine]
< 100 | < 100 | Cc1cc(=O)n(C)nc1-c1ccc(-c2c[nH]c3ncc(-c4ccc5c(c4)CC[C@@H](N4C6COCC4C6)CC5)cc23)cc1 [Example 20, 2,5-Dimethyl-6-(4-{5-[(7S)-7-{3-oxa-6-azabicyclo[3.1.1]heptan-6-yl}-6,7,8,9-tetrahydro-5H-benzo[7]annulen-2-yl]-1H-pyrrolo[2,3-b]pyridin-3-yl}phenyl)-2,3-dihydropyridazin-3-one]
< 100 | < 100 | Cc1cccnc1-c1cnc(-c2n[nH]c3ncc(-c4ccc5c(c4)CC[C@@H](N4C6COCC4C6)CC5)cc23)cn1 [Example 193, 6-[(7S)-2-{3-[5-(3-Methylpyridin-2-yl)pyrazin-2-yl]-1H-pyrazolo[3,4-b]pyridin-5-yl}-6,7,8,9-tetrahydro-5H-benzo[7]annulen-7-yl]-3-oxa-6-azabicyclo[3.1.1]heptane]
< 100 | < 100 | Cn1ncnc1-c1ccc(-c2n[nH]c3ncc(-c4ccc5c(c4)CC[C@@H](N[C@H]4CCCOC4)CC5)cc23)cc1 [Example 134]
> 1000 | < 100 | Cc1cccc(F)c1-c1ccc(-c2c[nH]c3ncc(-c4ccc5c(c4)CC[C@@H](N4C6COCC4C6)CC5)cc23)cc1 [Example 84, 6-[(7S)-2-(3-{2′-Fluoro-6′-methyl-[1,1′-biphenyl]-4-yl}-1H-pyrrolo[2,3-b]pyridin-5-yl)-6,7,8,9-tetrahydro-5H-benzo[7]annulen-7-yl]-3-oxa-6-azabicyclo[3.1.1]heptane]
100 to 1000 | < 100 | Cc1ccc(C(C)(C)O)nc1-c1ccc(-c2c[nH]c3ncc(-c4ccc5c(c4)CC[C@@H](N4C6COCC4C6)CC5)cc23)cc1 [Example 8, 2-[5-Methyl-6-(4-{5-[(7S)-7-{3-oxa-6-azabicyclo[3.1.1]heptan-6-yl}-6,7,8,9-tetrahydro-5H-benzo[7]annulen-2-yl]-1H-pyrrolo[2,3-b]pyridin-3-yl}phenyl)pyridin-2-yl]propan-2-ol]
100 to 1000 | < 100 | Cc1ccc(C)c(-c2ccc(-c3n[nH]c4ncc(-c5ccc6c(c5)CC[C@@H](N5C7COCC5C7)CC6)cc34)cc2C)n1 [Example 185, 6-[(7S)-2-{3-[4-(3,6-Dimethylpyridin-2-yl)-3-methylphenyl]-1H-pyrazolo[3,4-b]pyridin-5-yl}-6,7,8,9-tetrahydro-5H-benzo[7]annulen-7-yl]-3-oxa-6-azabicyclo[3.1.1]heptane]
< 100 | < 100 | Cc1cccnc1-c1ncc(-c2c[nH]c3ncc(-c4ccc5c(c4)CC[C@@H](N4C6COCC4C6)CC5)cc23)cn1 [Example 38, 6-[(7S)-3-[3-[2-(3-Methylpyridin-2-yl)pyrimidin-5-yl]-1H-pyrrolo[2,3-b]pyridin-5-yl]-6,7,8,9-tetrahydro-5H-benzo[7]annulen-7-yl]-3-oxa-6-azabicyclo[3.1.1]heptane]
< 100 | < 100 | Cc1cccnc1-c1cccc(-c2n[nH]c3ncc(-c4ccc5c(c4)CC[C@@H](N4C6COCC4C6)CC5)cc23)c1 [Example 81, 6-[(7S)-2-{3-[3-(3-Methylpyridin-2-yl)phenyl]-1H-pyrazolo[3,4-b]pyridin-5-yl}-6,7,8,9-tetrahydro-5H-benzo[7]annulen-7-yl]-3-oxa-6-azabicyclo[3.1.1]heptane]
< 100 | < 100 | Cc1cccnc1-c1ccnc(-c2c[nH]c3ncc(-c4ccc5c(c4)CC[C@@H](N4C6COCC4C6)CC5)cc23)c1 [Example 83, 3-Methyl-2′-{5-[(7S)-7-{3-oxa-6-azabicyclo[3.1.1]heptan-6-yl}-6,7,8,9-tetrahydro-5H-benzo[7]annulen-2-yl]-1H-pyrrolo[2,3-b]pyridin-3-yl}-2,4′-bipyridine]
